Laboratory results: US9441012B2, “Fluorinated epoxyketone-based compounds and uses thereof as proteasome inhibitors” (FLUORINOV PHARMA INC., priority 2012, dated 2016)

Legend:
Assay in all cases: NCI 60 human tumor cell line screen (SRB)
Assay type in all cases: cell-based
SK-MEL-5 = SK-MEL-5 (Melanoma); 48 h
Source text: (§1) Representative compounds of Formula I were screened using the National Cancer Institute (NCI) screening panel, which consists of a panel of 60 different human tumor cell lines, representing leukemia [CCRF-CEM, HL-60 (TB), K-562, MOLT-4, SR], melanoma [LOX IMVI, MALME-3M, M14, SMDA-MB-435, SK-MEL-2, SK-MEL-28, SK-MEL-5, UACC-257 and UACC-62] and cancers of the lung [A549/ATCC, EKVX, HOP-62, HOP-93, NCI-H226, NCI-H23, NCI-H322M, NCI-H460], colon [COLO 205, HCT-116, HCT-15, HT29, KM12, SW-620], brain [SF-268, SF-295, SF-539, SNB-19, SNB-75, U251], ovary [IGROV1, OVCAR-3, OVCAR-4, OVCAR-5, OVCAR-8, NCI/ADR-RES, SK-OV-3], breast [MCF7, MDA-MB-231, BT-549, T-47D, MDA-MB-468], prostate [PC-3, DU-145], and renal[786-0, A498, ACHN, CAKI-1, RXF-393, SN12C, TK-10, UO-31] cancers.
(§2) After 24 h, two plates of each cell line are fixed in situ with TCA, to represent a measurement of the cell population for each cell line at the time of drug addition (Tz). Experimental drugs are solubilised in dimethyl sulfoxide at 400-fold the desired final maximum test concentration and stored frozen prior to use. At the time of drug addition, an aliquot of frozen concentrate is thawed and diluted to twice the desired final maximum test concentration with complete medium containing 50 μg/ml gentamicin. Additional four, 10-fold or ½ log serial dilutions are made to provide a total of five drug concentrations plus control. Aliquots of 100 μl of these different drug dilutions are added to the appropriate microtiter wells already containing 100 μl of medium, resulting in the required final drug concentrations.
(§3) Following drug addition, the plates are incubated for an additional 48 h at 37° C., 5% CO2, 95% air, and 100% relative humidity. For adherent cells, the assay is terminated by the addition of cold TCA (trichloroacetic acid). Cells are fixed in situ by the gentle addition of 50 μl of cold 50% (w/v) TCA (final concentration, 10% TCA) and incubated for 60 minutes at 4° C. The supernatant is discarded, and the plates are washed five times with tap water and air dried. Sulforhodamine B (SRB) solution (100 μl) at 0.4% (w/v) in 1% acetic acid is added to each well, and plates are incubated for 10 minutes at room temperature. After staining, unbound dye is removed by washing five times with 1% acetic acid and the plates are air dried. Bound stain is subsequently solubilised with 10 mM trizma base, and the absorbance is read on an automated plate reader at a wavelength of 515 nm. For suspension cells, the methodology is the same except that the assay is terminated by fixing settled cells at the bottom of the wells by gently adding 50 μl of 80% TCA (final concentration, 16% TCA). Using the seven absorbance measurements [time zero, (Tz), control growth, (C), and test growth in the presence of drug at the five concentration levels (Ti)], the percentage growth is calculated at each of the drug concentration levels. Percentage growth inhibition is calculated as: [(Ti−Tz)/(C−Tz)]×100 for concentrations in which Ti>/=Tz and [(Ti−Tz)/Tz]×100 for concentrations in which Ti<Tz.
(§4) Three dose response parameters are calculated for each experimental agent. Growth inhibition of 50% (GI50) is calculated from [(Ti−Tz)/(C−Tz)]100=50, which is the drug concentration resulting in a 50% reduction in the net protein increase (as measured by SRB staining) in control cells during the drug incubation. The drug concentration resulting in total growth inhibition (TGI) is calculated from Ti=Tz. The LC50 (concentration of drug resulting in a 50% reduction in the measured protein at the end of the drug treatment as compared to that at the beginning) indicating a net loss of cells following treatment is calculated from [(Ti−Tz)/Tz]×100=−50. Values are calculated for each of these three parameters if the level of activity is reached. However, if the effect is not reached or is exceeded, the value for that parameter is expressed as greater or less than the maximum or minimum concentration tested.

RPMI-8226 = RPMI-8226 (Leukemia); 48 h
Source text: as §1, §2, §3, §4

SF-539 = SF-539 (CNS Cancer); 48 h
Source text: as §1, §2, §3, §4

MDA-MB-468 = MDA-MB-468 (Breast Cancer); 48 h
Source text: as §1, §2, §3, §4

BT-549 = BT-549 (Breast Cancer); 48 h
Source text: as §1, §2, §3, §4

MALME-3M = MALME-3M (Melanoma); 48 h
Source text: as §1, §2, §3, §4

MDA-MB-435 = MDA-MB-435 (Melanoma); 48 h
Source text: as §1, §2, §3, §4

SF-268 = SF-268 (CNS Cancer); 48 h
Source text: as §1, §2, §3, §4

HT29 = HT29 (Colon Cancer); 48 h
Source text: as §1, §2, §3, §4

NCI-H226 = NCI-H226 (Non-Small Cell Lung Cancer); 48 h
Source text: as §1, §2, §3, §4

M14 = M14 (Melanoma); 48 h
Source text: as §1, §2, §3, §4

UACC-62 = UACC-62 (Melanoma); 48 h
Source text: as §1, §2, §3, §4

| SMILES | Log10GI50 (SK-MEL-5) | Log10LC50 (SK-MEL-5) | Log10TGI50 (SK-MEL-5) | Log10GI50 (RPMI-8226) | Log10LC50 (RPMI-8226) | Log10TGI50 (RPMI-8226) | Log10GI50 (SF-539) | Log10LC50 (SF-539) | Log10TGI50 (SF-539) | Log10GI50 (MDA-MB-468) | Log10TGI50 (MDA-MB-468) | Log10GI50 (BT-549) | Log10LC50 (BT-549) | Log10TGI50 (BT-549) | Log10GI50 (MALME-3M) | Log10LC50 (MALME-3M) | Log10TGI50 (MALME-3M) | Log10GI50 (MDA-MB-435) | Log10LC50 (MDA-MB-435) | Log10TGI50 (MDA-MB-435) | other results |
| --- | --- | --- | --- | --- | --- | --- | --- | --- | --- | --- | --- | --- | --- | --- | --- | --- | --- | --- | --- | --- | --- |
| Cc1ncc(C(=O)N[C@@H](COC(F)F)C(=O)N[C@@H](COC(F)F)C(=O)N[C@@H](Cc2ccccc2)C(=O)[C@@]2(C)CO2)s1 [Example 1, 2-methyl-thiazole-5-carboxylic acid ((S)-1-{(S)-1-[(S)-1-benzyl-2-((R)-2-methyloxiranyl)-2-oxo-ethylcarbamoyl]-2-difluoromethoxyethylcarbamoyl}-2-difluoromethoxyethyl)-amide] | −7.15 | −5.47 | −6.34 | −7.40 | >−4.00 | −4.86 | −7.15 | −4.27 | −6.44 | −6.75 | −6.32 | −7.49 | −5.74 | −6.87 | −7.30 | >−4.00 | −6.38 | −7.43 | >−4.00 | −6.74 | Log10GI50 (SF-268): −6.98; Log10LC50 (SF-268): >−4.00; Log10TGI50 (SF-268): −5.90; Log10GI50 (HT29): −7.29; Log10LC50 (HT29): −4.32; Log10TGI50 (HT29): −6.22; Log10GI50 (NCI-H226): −7.44; Log10TGI50 (NCI-H226): −6.84; Log10GI50 (M14): −6.86; Log10LC50 (M14): −4.35; Log10TGI50 (M14): −6.24; Log10GI50 (UACC-62): −6.68; Log10LC50 (UACC-62): −4.95; Log10TGI50 (UACC-62): −5.78 |
| CC(C)C[C@H](NC(=O)[C@H](Cc1ccccc1)NC(=O)[C@H](COC(F)F)NC(=O)CN1CCOCC1)C(=O)[C@@]1(C)CO1 [Example 25, (2S)-2-[[(2S)-3-(difluoromethoxy)-2-[(2-morpholinoacetyl)amino]propanoyl]amino]-N-[(1S)-3-methyl-1-[(2R)-2-methyloxirane-2-carbonyl]butyl]-3-phenyl-propanamide] | −7.60 | −6.49 | −7.17 | −7.52 | >−4.00 | −7.04 | −7.63 | −6.48 | −7.26 | −7.54 | −6.96 | −7.73 | −7.05 | −7.39 | −7.51 | >−4.00 | −6.64 | −7.75 | −7.10 | −7.42 | Log10LC50 (MDA-MB-468): >−4.00; Log10GI50 (SF-268): −7.60; Log10LC50 (SF-268): >−4.00; Log10TGI50 (SF-268): −7.14; Log10GI50 (HT29): −7.45; Log10LC50 (HT29): >−4.00; Log10TGI50 (HT29): −5.84; Log10GI50 (NCI-H226): −7.77; Log10LC50 (NCI-H226): −7.10; Log10TGI50 (NCI-H226): −7.43; Log10GI50 (M14): −7.48; Log10LC50 (M14): >−4.00; Log10TGI50 (M14): −6.71; Log10GI50 (UACC-62): −7.35; Log10LC50 (UACC-62): −4.58; Log10TGI50 (UACC-62): −6.63 |
